Literature values in publication PMC12451523 (RSC Advances, 2025).

Target: fungal tyrosinase
Conditions: read-out: IC50 (μM) ± S.E., standard inhibitors, ref [50]

IC50 [µM] | Structure (SMILES)
11.5 ± 1 | O=C1O[C@H]([C@@H](O)CO)C(O)=C1O [Ascorbic acid]
30.3 ± 1 | O=c1cc(CO)occ1O [Kojic acid]
